Entries after “also recorded” stand apart in the source; their conditions may differ. Read-outs that look alike come from different tables or passages of the source.
Experiments:
AfK [1] = biological target: T1, AfK (Aspergillus fumigatus, UniProt Q4WQS0); assay: HTS assay of AfK activity using Kdn glycoside 4 (384-well, stop solution); format: biochemical; conditions: for inhibitory activity verified in repeat assay of HTS hits: TargetMol library pilot screen
T1 construct: AfK was expressed and purified as described by Telford et al; made in house
Method: We next miniaturized our assay for use in a 384-well microplate format by optimizing the quantity of detergent and checking for fluorescent signal stability (Figs 2A,S6 and S7 Supporting Information). In each well, we added a solution of buffer containing AfK (50 nM) and then added a library compound using a pin tool. We included both detergent (0.2% (v/v) Tween-20) and BSA (0.01% BSA) to reduce false positives arising from aggregation prone compounds ([Feng et al. 2007]). We then equilibrated the mixture prior to the addition of substrate 4, and the resultant solution was incubated for 1 h after which stop solution was added. To ensure cyclization was complete, the mixture was allowed to react for 1 h prior to measuring the fluorescence. Candidate hits identified in this primary screen were cherry picked and delivered into a gold plate that was used to confirm hits.
To each well in a 384-well microplate, enzyme (20 μL of a 50 nM stock solution) in reaction buffer (100 mM NaOAc, 0.2% Tween-20, 0.01% BSA, pH 4) was added to a library compound (200 nL of 20 μM TargetMol, 10 μM Chembridge), and this mixture was incubated at rt for 1 h. Then, substrate 4 (20 μL of a 50 μM stock) was added and the resultant mixture was incubated at rt for an additional 1 hr. Following addition of stop solution (40 μL of 1 M aqueous K2CO3, pH ≈ 12) to the mixture the plate was incubated for 1 h at rt. Next, the fluorescence for each well was measured (BioTek Neo 2) using an excitation and an emission wavelength of 360 and 450 nm, respectively. The collected data was analyzed using Prism 7.0. We used the known mechanism-based inactivator 2,3-diF-Kdn (3) as the positive control ([Watts et al. 2006]; [Khazaei et al. 2015]). That is, using 2,3-diFKdn at a concentration of 30 μM, following a 10 min incubation, gives a background signal that equates to >90% inhibition.

[2] = biological target: T2, Kdnase produced by A. fumigatus (AfK) (Aspergillus fumigatus, UniProt Q4WQS0); assay: Inhibition assay of recombinant AfK using 4MU-Kdn as substrate; format: biochemical; conditions: for mode of inhibition (Lineweaver-Burk plots) / fold lower IC50 value than that reported for Kdn2en 2: AfK; for fold lower IC50 value than that reported for Kdn2en 2: Kdn2en value from Yeung et al. 2013; for Hill coefficient: pH 4.0
T2 construct: AfK was expressed and purified as described by Telford et al; made in house
Description: (§1) We purchase fresh commercial material for compounds 13 and 14 and performed inhibition assays using recombinant AfK (Methods, Fig. S8, Supporting Information). We determined IC50 values in quadruplicate using 4MU-Kdn as the substrate ([Yeung et al. 2013]). […] We submitted both compounds to a pan-assay interference compounds (PAINS) filter, a compilation of chemical substructures known to show promiscuous biological activities ([Baell and Nissink 2018]). […] We performed standard inhibition assays as described earlier using inhibitor 13 and these recombinant enzymes. […] We also tested inhibitor 13 with the sialidase MvNA, the closest structural homologue to AfK, that is known to cleave a multitude of substrates including Kdn glycosides ([Telford et al. 2011]).
(§2) Each 200 μM reaction mixture was incubated at rt for 2 min prior to the addition of purified sialidase. Inhibitor was added to the reaction mixture and allowed to incubate at rt between 0–60 min in 100 mM sodium acetate buffer pH 4.0 and 0.01% BSA prior to the addition of substrate. The kinetic parameters were determined from initial rate measurements using a substrate concentration of Km/4. The progress of the reaction was continuously monitored for 15 min using a fluorescence spectrophotometer (BioTek Neo 2) and excitation and emission wavelengths of 360 and 450 nm, respectively.

[3] = biological target: Aspergillus terreus Kdnase (AtK) (Aspergillus terreus, UniProt Q0CMX0); assay: Inhibition assay of recombinant AtK using Kdn4MU as substrate; format: biochemical; conditions: for Hill coefficient: pH 4.0
Description: as §1, §2

[4] = biological target: Trichophyton rubrum Kdnase (TrK) (Trichophyton rubrum, UniProt A0A178EUH2); assay: Inhibition assay of recombinant TrK using Kdn4MU as substrate; format: biochemical; conditions: for Hill coefficient: pH 4.0
Description: as §1, §2

neuraminidase MvNA = neuraminidase MvNA (Micromonospora viridifaciens, UniProt Q02834); assay: Inhibition assay of the sialidase MvNA using Kdn4MU as substrate; format: biochemical; conditions: for Hill coefficient: Table 1, 37 °C, pH 5.5
Description: as §1
Each 200 μM reaction mixture was incubated at rt for 2 min prior to the addition of purified sialidase. […] The kinetic parameters were determined from initial rate measurements using a substrate concentration of Km/4. The progress of the reaction was continuously monitored for 15 min using a fluorescence spectrophotometer (BioTek Neo 2) and excitation and emission wavelengths of 360 and 450 nm, respectively.

AfK [5] = biological target: T1, AfK; assay: Differential scanning fluorimetry (DSF) thermal shift assay, AfK; format: binding; conditions: for effect on thermal stability of the folded enzyme (DSF, in words): AfK; for protein melting temperature (DSF, Table S3): inhibitor 500 µM, 100 mM pH 4.0 NaOAc, 5–10 µM enzyme; for ΔTm at 500 µM: read-out: Thermal shift (ΔTm) relative to DMSO (2.5%) control
Description: (§3) We next used a separate biophysical technique, differential scanning fluorimetry (DSF), to confirm that these compound bind to the various Kdnases. Specifically, we measured protein melting temperatures in the presence of Kdn2en (2) and candidate ligands 13 and 17 (Fig. 3D). […] We repeated this DSF assay on AtK and TrK and we observed similar trends in thermal shifts (Fig. S14 and Tables S2,S3 and S4, Supporting Information). […] Accordingly, further follow up on this compound would need to be pursued with an awareness of this possibility.
(§4) Table S3. Differential scanning fluorometry-based (DSF) assay for inhibitors 2, 13, and 17 binding to Af, At, Tr and MvNA. Protein thermal shifts(ΔTm) using DMSO (2.5%), and inhibitors 2, 13, and 17 at 500 µM against the Kdnase of Af, At, Tr and MvNA. Assay done using 5–10 µM enzyme and 100 mM pH 4.0 NaOAc (pH 5.5 MvNA). A temperature range of 25°C to 95°C was used with a gradient of 0.05°C/sec. […]
(§5) Table S4. Thermal shifts (ΔTm) for stabilization of AfK, AtK, TrK and MvNA on inhibitor binding relative to the DMSO (2.5%) control. […]

AtK = assay: Differential scanning fluorimetry (DSF) thermal shift assay, AtK; format: binding, Aspergillus terreus; conditions: for Thermal shift (ΔTm) relative to DMSO (2.5%) control: Table S4; for Thermal shift (ΔTm) relative to DMSO (2.5%) control / protein melting temperature (DSF, Table S3): inhibitor 500 µM; for protein melting temperature (DSF, Table S3): 100 mM pH 4.0 NaOAc, 5–10 µM enzyme
Description: as §3, §4, §5

TrK = assay: Differential scanning fluorimetry (DSF) thermal shift assay, TrK; format: binding, Trichophyton rubrum; conditions: for Thermal shift (ΔTm) relative to DMSO (2.5%) control: Table S4; for Thermal shift (ΔTm) relative to DMSO (2.5%) control / protein melting temperature (DSF, Table S3): inhibitor 500 µM; for effect on thermal stability of the folded enzyme (DSF, in words): TrK; for protein melting temperature (DSF, Table S3): 100 mM pH 4.0 NaOAc, 5–10 µM enzyme
Description: as §3, §4, §5

MvNA = MvNA (Micromonospora viridifaciens, UniProt Q02834); assay: Differential scanning fluorimetry (DSF) thermal shift assay, MvNA; format: binding; conditions: inhibitor 500 µM; for ΔTm at 500 µM: Table S4, read-out: Thermal shift (ΔTm) relative to DMSO (2.5%) control; for protein melting temperature (DSF, Table S3): pH 5.5, 5–10 µM enzyme
Method: as §4, §5

A. fumigatus = system: A. fumigatus; set-up: method as in Nesbitt et al. 2018; conditions: ref Nesbitt et al. 2018, cited from earlier work
[6] = Table 1, 37 °C, Kdn4MU substrate, NaOAc 100 mM pH 4.0, 0.01% BSA, read-out: IC50
[7] = Table 1, calculated Ki = IC50/(([S]/Km) + 1), read-out: Ki
[8] = Table S2, values from this work
[9] = Table 1, calculated Ki = IC50/(([S]/Km) + 1)

Sequence of Trichophyton rubrum Kdnase (TrK) (A0A178EUH2 entry or part of it): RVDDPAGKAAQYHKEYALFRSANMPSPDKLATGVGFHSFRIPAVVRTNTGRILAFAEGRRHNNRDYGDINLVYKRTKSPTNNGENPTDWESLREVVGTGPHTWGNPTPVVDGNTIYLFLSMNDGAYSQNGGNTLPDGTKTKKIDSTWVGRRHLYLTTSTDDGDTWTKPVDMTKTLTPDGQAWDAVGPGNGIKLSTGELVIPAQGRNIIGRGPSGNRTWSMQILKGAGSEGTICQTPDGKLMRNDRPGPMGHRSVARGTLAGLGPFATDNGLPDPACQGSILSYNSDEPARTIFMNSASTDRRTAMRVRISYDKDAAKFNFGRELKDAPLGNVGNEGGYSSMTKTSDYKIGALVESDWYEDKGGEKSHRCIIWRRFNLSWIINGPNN
T1 sequence (Q4WQS0 21-406): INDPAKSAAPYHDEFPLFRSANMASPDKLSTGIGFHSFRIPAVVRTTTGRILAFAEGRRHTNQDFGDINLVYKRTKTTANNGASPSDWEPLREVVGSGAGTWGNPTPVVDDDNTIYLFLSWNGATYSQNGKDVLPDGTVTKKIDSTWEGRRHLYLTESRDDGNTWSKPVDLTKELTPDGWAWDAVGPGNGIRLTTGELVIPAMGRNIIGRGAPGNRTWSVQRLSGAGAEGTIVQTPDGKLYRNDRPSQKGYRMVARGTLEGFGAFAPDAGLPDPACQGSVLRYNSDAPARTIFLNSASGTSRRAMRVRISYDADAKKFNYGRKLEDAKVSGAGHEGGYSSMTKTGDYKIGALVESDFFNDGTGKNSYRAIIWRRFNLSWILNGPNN
T2 sequence (Q4WQS0 21-406): as above
Sequence of neuraminidase MvNA (Q02834 38-647): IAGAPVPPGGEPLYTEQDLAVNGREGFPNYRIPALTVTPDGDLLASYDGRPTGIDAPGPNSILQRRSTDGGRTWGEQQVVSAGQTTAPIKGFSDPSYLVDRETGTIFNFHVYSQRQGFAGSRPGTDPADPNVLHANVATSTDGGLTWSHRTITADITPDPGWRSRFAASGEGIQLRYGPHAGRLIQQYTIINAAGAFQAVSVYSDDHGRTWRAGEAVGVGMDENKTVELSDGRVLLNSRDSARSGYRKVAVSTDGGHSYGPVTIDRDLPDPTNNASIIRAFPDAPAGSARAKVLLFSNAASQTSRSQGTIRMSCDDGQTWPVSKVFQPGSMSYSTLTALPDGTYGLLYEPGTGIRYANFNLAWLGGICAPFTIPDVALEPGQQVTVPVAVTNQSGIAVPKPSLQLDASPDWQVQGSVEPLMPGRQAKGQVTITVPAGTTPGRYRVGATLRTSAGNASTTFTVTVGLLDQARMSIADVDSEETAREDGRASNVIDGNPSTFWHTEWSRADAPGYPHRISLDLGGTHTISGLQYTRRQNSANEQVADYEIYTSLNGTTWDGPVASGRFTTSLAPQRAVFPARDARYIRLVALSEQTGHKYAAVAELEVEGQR
Sequence of MvNA (Q02834 38-647): as above
Sequence of Aspergillus terreus Kdnase (AtK) (Q0CMX0 entry or part of it): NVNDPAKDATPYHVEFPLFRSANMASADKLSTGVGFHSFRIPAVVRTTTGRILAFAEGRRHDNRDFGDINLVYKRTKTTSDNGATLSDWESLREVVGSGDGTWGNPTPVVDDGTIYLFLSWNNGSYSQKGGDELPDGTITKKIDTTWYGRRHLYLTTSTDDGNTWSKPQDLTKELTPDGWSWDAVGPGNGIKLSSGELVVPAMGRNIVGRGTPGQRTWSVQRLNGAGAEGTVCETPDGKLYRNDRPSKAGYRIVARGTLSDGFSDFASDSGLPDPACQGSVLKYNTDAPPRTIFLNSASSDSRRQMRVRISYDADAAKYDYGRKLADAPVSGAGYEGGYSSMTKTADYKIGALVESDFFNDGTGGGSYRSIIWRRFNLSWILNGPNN

Compound | mode of inhibition (Lineweaver-Burk plots) [2] | fold lower IC50 value than that reported for Kdn2en 2 [2] | IC50 [2, 6] | Hill coefficient ([2]; Table 1, 37 °C) | Ki [2, 7] | Hill [2, 8] | Hill coefficient ([3]; Table 1, 37 °C) | Hill coefficient ([4]; Table 1, 37 °C) | IC50 (neuraminidase MvNA) | Hill coefficient (neuraminidase MvNA) | effect on thermal stability of the folded enzyme (DSF, in words) (AfK [5]) | protein melting temperature (DSF, Table S3) (AfK [5]) | ΔTm at 500 µM (AfK [5]) | Thermal shift (ΔTm) relative to DMSO (2.5%) control (AtK) | protein melting temperature (DSF, Table S3) (AtK) | Thermal shift (ΔTm) relative to DMSO (2.5%) control (TrK) | effect on thermal stability of the folded enzyme (DSF, in words) (TrK) | protein melting temperature (DSF, Table S3) (TrK) | ΔTm at 500 µM (MvNA) | protein melting temperature (DSF, Table S3) (MvNA) | further results
O=C(O)[C@]1(F)O[C@@H]([C@H](O)[C@H](O)CO)[C@H](O)[C@@H](O)[C@H]1F [compound 3, 2,3-diF-α-Kdn] |  |  |  |  |  |  |  |  |  |  |  |  |  |  |  |  |  |  |  |  | inhibition at 30 µM (AfK [1]; 30 μM, 10 min incubation): > 90%; activity at 30 µM (AfK [1]; 30 μM, reacted with AfK for 10 min, read-out: fluorescent signal relative to the uninhibited sample): < 10%; Hill Slope (AfK [1]; following incubation (10 min)): -1.2; IC50 (AfK [1]; following incubation (10 min), read-out: apparent IC50): 3.1 µM
O=C1NC[C@@]2(C(=O)O)CN(Cc3ccc(C4CCCCC4)s3)C[C@@H]12 [compound 17] | competitive inhibitor | 5 fold | 115 ± 2 µM | −0.81 | 74.7 µM | –0.81 | −0.88 | −1.11 | 6.6 ± 0.6 µM | −0.89 | stabilizes all three Kdnases; also recorded: positive unfolding temperature shifts | 54.6 ± 0.1 °C | 3.1 °C | +3.5 ± 0.1 °C | 55.4 ± 0.1 °C | +16.2 ± 0.1 °C | stabilizes all three Kdnases | 50.9 ± 0.1 °C | 5.2 °C | 59.1 ± 0.1 °C | IC50 ([2]; Table S2, Kdn4MU substrate, sodium acetate 100 mM pH 4.0, 0.01% BSA, 37 C, values from this work, read-out: IC50): 115 ± 2 µM; inhibition of AfK in standard inhibition assay ([2]; purchased compounds, 4MU-Kdn 1 as substrate): inhibited AfK; IC50 [3, 6]: 50 ± 1.2 µM; Ki [3, 9]: 38.5 µM; IC50 [4, 6]: 93.3 ± 0.8 µM; Ki [4, 9]: 73.3 µM; effect on thermal stability of the folded enzyme (DSF, in words) (AtK; AtK): stabilizes all three Kdnases
CC(C)(C)c1cc(C=C(C#N)C#N)cc(C(C)(C)C)c1O [compound 14, Tyrphostin A9, reference compound] | competitive inhibitors |  |  |  |  | –0.92 |  |  |  |  |  |  |  |  |  |  |  |  |  |  | IC50 [2]: 65.8 ± 1.7 µM; Ki [2]: 58.4 µM; inhibitory activity verified in repeat assay of HTS hits (AfK [1]): inhibit AfK
C[C@@H]1[C@H](O)[C@@H](C)/C=C/C=C/C=C/C=C/C=C/C=C/C=C/[C@H](O[C@@H]2O[C@H](C)[C@@H](O)[C@H](N)[C@@H]2O)C[C@@H]2O[C@](O)(C[C@@H](O)C[C@@H](O)[C@H](O)CC[C@@H](O)C[C@@H](O)CC(=O)O[C@H]1C)C[C@H](O)[C@H]2C(=O)O [Amphotericin B] |  |  |  |  |  |  |  |  |  |  |  |  |  |  |  |  |  |  |  |  | survival outcome (A. fumigatus; immunocompromised mice infected with AfK KO spores): improved survival rate; survival outcome (A. fumigatus; immunocompromised mice infected with wild-type (WT) A. fumigatus spores): complete mortality
O=C(/C=C/c1ccc(O)c2c1[C@H](C(=O)O)[C@@H](c1ccc(O)c(O)c1)O2)O[C@H](Cc1ccc(O)c(O)c1)C(=O)O [compound 13, lithospermic acid] | competitive inhibitors | 24 fold | 22.8 ± 1 µM | −1.32 | 18.7 µM | –1.32 | −1.36 | −0.80 | 347 ± 2 µM | −0.90 | stabilizes neither AfK; also recorded: no effect on the stability of AfK | 51.4 ± 0.1 °C | -0.1 °C | –0.8 ± 0.1 °C | 51.1 ± 0.1 °C | +13.7 ± 0.1 °C | does stabilize TrK | 48.4 ± 0.1 °C | 1 °C | 54.9 ± 0.4 °C | time-dependent inhibition ([2]; time points 0, 10 and 60 mins, 50 µM Kdn4MU 1 substrate): no time dependent changes in calculated IC50 values; IC50 [3]: 14.4 ± 0.07 µM; mode of inhibition ([3]; AtK): competitively inhibited; IC50 [4]: 11.8 ± 0.1 µM; mode of inhibition ([4]; TrK): competitively inhibited; inhibitory activity verified in repeat assay of HTS hits (AfK [1]): inhibit AfK
O=C(O)/C=C/c1ccc(O)c(O)c1 [caffeic acid, reference compound] |  |  |  |  |  |  |  |  |  |  |  |  |  |  |  |  |  |  |  |  | IC50 ([2]; Fig. S10, read-out: IC50): ~500 µM

— paper PMC11727334, “A self-immolative Kdn-glycoside substrate enables high-throughput screening for inhibitors of Kdnases” (Glycobiology, 2024)
